Values of other authors, collected in patent US20080233201A1, “Method for Preparing Calibrated Biodegradable Microspheres” (priority 2004, published 2008).

Conditions: at 20° C.

solubility in water: 8.7 g/100 g of water
Structure (SMILES): CCOC(C)=O [Ethyl acetate]
